Assay results from US20190374572A1, “KAOLINIC CLAYS WITH ANTIMICROBIAL ACTIVITY” (IMERYS USA, INC., priority 2017, published 2019).
Marks after values point to notes of the source that are not given here.

Legend:
E. coli [1] = assay: CFU-based bacterial assay; type: cell-based
Procedure: Each sample set was evaluated using at least one of the following assays: (1) a CFU-based bacterial assay; […] As explained above, following sample incubation the samples were evaluated for the level of bacterial growth using a CFU-based bacterial assay and/or a UV-visible bacterial assay. The CFU-based bacterial assay involves serially diluting samples by various dilution factors, plating the surface of pre-poured LB plates, and manually counting the resulting sample cultures to measure the level of growth based on log10 CFU/ml. CFU per ml were calculated by counting the number of colonies on the plate with growths ranging from 30 and 300, and then applying the equation (1): In this CFU-based bacterial assay, the levels of activity corresponding to the control samples (no E. coli) were set as the zero points.

E. coli [2] = assay: UV-visible bacterial assay (optical density at 570 nm); type: cell-based

For `O.O.O.O.O.O=S(=O)([O-])[O-].[Cu+2]` [Example 23, copper (II) sulfate pentahydrate], the “24 Hour log10 CFU/ml” value (E. coli [1]) was 2.4 log10 CFU/ml.

With `O.O.O.O.O.O.O.O=S(=O)([O-])[O-].[Fe+2]` [Example 20, iron (II) sulfate heptahydrate] the “Antibacterial potential category from OD at 570 nm” value (“Antibacterial potential category” below) (E. coli [2]) was 1.172 ^s) (key: Complete Kill Candidate (<0.250); p: Inhibition-Kill Candidate (0.250-0.350); q: Inhibition Candidate (0.351-0.450); <10^8 Growth Candidate (0.451-1.250); Robust Growth Candidate (>1.251)) and the “24 Hour log10 CFU/ml” value (E. coli [1]) was 8.8 log10 CFU/ml.

In the case of `O.O.O.O.O.O=S(=O)([O-])[O-].[Cu+2]` [Example 22, copper (II) sulfate pentahydrate], the “Antibacterial potential category” value (E. coli [2]) is reported as 0.734 ^r) (key: Complete Kill Candidate (<0.250); p: Inhibition-Kill Candidate (0.250-0.350); q: Inhibition Candidate (0.351-0.450); <10^8 Growth Candidate (0.451-1.250); Robust Growth Candidate (>1.251)), the “UV-Vis Abs @ 570 nm (Optical Density (OD))” value (E. coli [2]) is reported as 0.734 ^r) and the “24 Hour log10 CFU/ml” value (E. coli [1]) is reported as 7.8 log10 CFU/ml.

With `O.O.O.O.O.O=S(=O)([O-])[O-].[Cu+2]` [Example 24, copper (II) sulfate pentahydrate] the “Antibacterial potential category” value (E. coli [2]) was 0.055 ^p) (key: Complete Kill Candidate (<0.250); p: Inhibition-Kill Candidate (0.250-0.350); q: Inhibition Candidate (0.351-0.450); <10^8 Growth Candidate (0.451-1.250); Robust Growth Candidate (>1.251)), the “UV-Vis Abs @ 570 nm (Optical Density (OD))” value (E. coli [2]) was 0.055 ^p) and the “24 Hour log10 CFU/ml” value (E. coli [1]) was 0 log10 CFU/ml.

In the case of `O.O.O.O.O.O.O.O=S(=O)([O-])[O-].[Fe+2]` [Example 21, iron (II) sulfate heptahydrate], the “Antibacterial potential category” value (E. coli [2]) is reported as 0.291 ^q) (key: Complete Kill Candidate (<0.250); p: Inhibition-Kill Candidate (0.250-0.350); q: Inhibition Candidate (0.351-0.450); <10^8 Growth Candidate (0.451-1.250); Robust Growth Candidate (>1.251)) and the “24 Hour log10 CFU/ml” value (E. coli [1]) is reported as 0 log10 CFU/ml.
